{"source": "patent US4382090A", "about": "“N-Thiazolylmethylthioalkyl-N'alkylamidines and related compounds” (Eli Lilly and Company, priority 1981, dated 1983)", "key": {"H2 -receptors": {"biological_target": "T1, H2 -receptors (Rattus norvegicus, UniProt P25102)", "T1 construct": "from tissue; host or cells: uterine horn of estrone-treated female albino rats", "T1 sequence (P25102 whole entry)": "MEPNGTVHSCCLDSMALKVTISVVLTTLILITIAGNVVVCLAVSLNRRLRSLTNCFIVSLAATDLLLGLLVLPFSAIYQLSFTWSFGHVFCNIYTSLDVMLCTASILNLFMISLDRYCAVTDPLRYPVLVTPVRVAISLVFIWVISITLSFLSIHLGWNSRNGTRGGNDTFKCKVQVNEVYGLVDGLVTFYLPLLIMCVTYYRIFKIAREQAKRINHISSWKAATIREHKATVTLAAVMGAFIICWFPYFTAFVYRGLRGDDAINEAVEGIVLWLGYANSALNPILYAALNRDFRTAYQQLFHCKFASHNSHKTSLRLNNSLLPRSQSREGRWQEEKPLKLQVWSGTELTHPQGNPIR", "assay": "H2-receptor blocking activity, isolated rat uterine horn (histamine relaxation of KCl-contracted uterus)", "settings": "for Kb: rat uterus, Schild plot, read-out: KB (dissociation constant of the antagonist)", "experimental": "The following assay for H2 -receptor blocking activity was employed. Female albino rats were treated with estrone 24 hours prior to the initiation of the experiment. The rats were sacrificed and the uterine horns removed therefrom and suspended at ambient temperatures in isolated organ baths containing De Jalon's solution. After equilibration, the uterine strips are exposed to 50 millimole aqueous potassium chloride, which produces a sustained contraction. When the uterus is so contracted, histamine produces a dose-dependent H2 -receptor-mediated relaxation. A control dose-response curve to histamine is constructed on each tissue. Following thorough washout of the histamine after obtaining the control dose-response curve, each antagonist (the compounds of this invention) is added for 30 minutes at a concentration of 10^-5 molar. The uterine strips are then contracted with aqueous potassium chloride in the presence of the antagonist and a second dose-response curve to histamine obtained. In the presence of a competitive antagonist, the dose-response curve to histamine is shifted in parallel to the right with no depression of the maximum relative to the control curve. The dose ratio (DR) is calculated for each concentration of antagonist by dividing the ED50 of histamine in the presence of the competitive antagonist by the control ED50 for histamine. The dissociation constant (KB) of the antagonist is calculated from the dose-ratios by the following equation: […]"}, "[1]": {"settings": "cited from earlier work"}, "[2]": {"settings": "cited from earlier work", "remark": "listed apart in the source"}, "H2 -receptor [3]": {"test_system": "H2 -receptor", "settings": "cited from earlier work"}, "H2 -receptor [4]": {"test_system": "H2 -receptor", "settings": "cited from earlier work", "remark": "listed apart in the source"}, "[5]": {"assay": "Preliminary tests of duration of action"}}, "data": [{"smiles": "CN/C(=N/CCSCc1nc[nH]c1C)NC#N", "note": "[cimetidine, N-cyano-N'-methyl-N\"-[2-([(5-methyl-1H-imidazol-4-yl)methyl]thio)ethyl]guanidine]", "values": [{"measurement": "Kb", "setting": "H2 -receptors", "value": 871, "unit": "nM"}, {"measurement": "Literature LD50 rat iv", "setting": "[1]; iv", "value": 106, "unit": "mg/kg"}, {"measurement": "Literature LD50 rat oral", "setting": "[1]; oral", "value": 5000, "unit": "mg/kg"}, {"measurement": "Literature LD50 mouse iv", "setting": "[2]", "value": 150, "unit": "mg/kg"}]}, {"smiles": "C#CCNC(=C[N+](=O)[O-])NCCSCc1ccc(CN(C)C)o1", "note": "[1-nitro-2-(2-propynylamino)-2-(2-[(5-dimethylaminomethyl-2-furyl)methylthio]ethylamino)ethylene]", "values": [{"measurement": "activity relative to cimetidine in a standard H2 -receptor assay", "setting": "H2 -receptor [3]", "value": 7.45, "unit": "times"}]}, {"smiles": "CNC(=NC#N)NCCSCc1csc(NC(=N)N)n1", "note": "[2-guanidino-4-[2-(2-cyano-3-methylguanidino)ethylthiomethyl]thiazole]", "values": [{"measurement": "activity compared with cimetidine", "setting": "H2 -receptor [4]", "value": "greatly increased activity over cimetidine"}]}, {"smiles": "CNC(=C[N+](=O)[O-])NCCSCc1csc(CN(C)C)n1", "note": "[N-methyl-N'-2-(2-dimethylaminomethyl-4-thiazolylmethylthio)ethyl 2-nitro-1,1-ethenediamine]", "values": [{"measurement": "duration of action compared with cimetidine", "setting": "[5]", "value": "longer duration of action"}, {"measurement": "Kb", "setting": "H2 -receptors", "value": 87, "unit": "nM"}]}, {"smiles": "CNC(=NC#N)NCCSCc1csc(CN(C)C)n1", "note": "[N-methyl-N'-2-(2-dimethylaminomethyl-4-thiazolylmethylthio)ethyl-N\"-cyanoguanidine]", "values": [{"measurement": "affinity for the H2 -receptors relative to cimetidine", "setting": "H2 -receptors; rat uterine strips, antagonist 10^-5 molar for 30 minutes", "value": "about 1.5 times"}]}]}
